Measurements from patent US12054487B2, “Muscarinic acetylcholine M1 receptor antagonists” (Contineum Therapeutics, Inc., priority 2018, dated 2024).

Assays:
Type in all cases: cell-based
human M1 receptor = target: T1, human M1 receptor (Homo sapiens, UniProt P11229); experiment: In vitro functional assay of muscarinic acetylcholine receptor activity (aequorin calcium flux, antagonist mode vs EC80 acetylcholine), M1; conditions: CHO-K1 cells stably expressing human M1 receptor with Aequorin; decrease in EC80 acetylcholine response
T1 construct: host or cells: CHO-K1
T1 sequence (P11229 1-460): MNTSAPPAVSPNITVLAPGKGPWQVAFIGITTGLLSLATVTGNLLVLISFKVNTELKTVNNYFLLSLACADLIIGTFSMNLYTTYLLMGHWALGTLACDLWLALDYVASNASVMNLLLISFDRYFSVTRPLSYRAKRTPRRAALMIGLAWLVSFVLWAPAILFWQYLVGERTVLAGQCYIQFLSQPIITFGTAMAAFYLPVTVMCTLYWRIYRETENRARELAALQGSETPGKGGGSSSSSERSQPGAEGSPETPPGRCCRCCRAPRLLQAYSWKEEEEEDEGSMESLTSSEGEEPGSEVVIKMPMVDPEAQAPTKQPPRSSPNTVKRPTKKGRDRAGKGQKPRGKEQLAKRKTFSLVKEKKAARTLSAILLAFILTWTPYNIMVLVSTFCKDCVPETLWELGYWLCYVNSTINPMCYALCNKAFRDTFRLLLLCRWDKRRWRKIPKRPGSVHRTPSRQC
Procedure: (§1) CHO-K1 cells stably expressing human M1 receptor with Aequorin (Perkin Elmer) were grown in F12 media, 10% FBS with 0.4 mg/mL geneticin and […]. Cells were grown to confluence and frozen down to be assayed at a later date. On the day of the experiment cells were thawed in a 37° C. water bath, resuspended in DMEM/HAM's F12 with HEPES (Invitrogen)+0.1% protease-free BSA (assay buffer), and spun down to remove freezing media. After centrifugation, supernatant was removed and 12 mL of assay buffer was added. Coelenterazine h (Promega) was added to the cells at a final concentration of 5 uM and incubated for 4 hours at room temperature in the dark. Compound master plate-96 deep well (Corning) were formatted in a 8-point DRC in assay buffer with 0.2% DMSO at a starting concentration of 60 uM (2×). After 4 hours of incubation, cells were plated at a concentration of 5×10^5 cells/well in 96 well white-walled, tissue culture-treated, clear-bottom plates (VWR). Compounds were added to the daughter plate, and cells plus compound were incubated at room temperature for 30 minutes in the dark.
(§2) Calcium flux was measured using the FlexStation 3 (Molecular Devices). To measure the antagonist dose-response, the EC80 of Acetylcholine was injected to the daughter plate using the automated compound transfer function of the Flex Station, and the increase in luminescence was measured over time. Antagonist activity was analyzed as a concentration dependent decrease in the EC80 acetylcholine response. Dose response curves were generated using Prism (GraphPad Software). The IC50 of the compounds was calculated from the dose response curve.

M2 = target: T2, M2 (Homo sapiens, UniProt P08172); experiment: In vitro functional assay of muscarinic acetylcholine receptor activity, M2; conditions: antagonist activity; M2 method not separately described
T2 sequence (P08172 1-466): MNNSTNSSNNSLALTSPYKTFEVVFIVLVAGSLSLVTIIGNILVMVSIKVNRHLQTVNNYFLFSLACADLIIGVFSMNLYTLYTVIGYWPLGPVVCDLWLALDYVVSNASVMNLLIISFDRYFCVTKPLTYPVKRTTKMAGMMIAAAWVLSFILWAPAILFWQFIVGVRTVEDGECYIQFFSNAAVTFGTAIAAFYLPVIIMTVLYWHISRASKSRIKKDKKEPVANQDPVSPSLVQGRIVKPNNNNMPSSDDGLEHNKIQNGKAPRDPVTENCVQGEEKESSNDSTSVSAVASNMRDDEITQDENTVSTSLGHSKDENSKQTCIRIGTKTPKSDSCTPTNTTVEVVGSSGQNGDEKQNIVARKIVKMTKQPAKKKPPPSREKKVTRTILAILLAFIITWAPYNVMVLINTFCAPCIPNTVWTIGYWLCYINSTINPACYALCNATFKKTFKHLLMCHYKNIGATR
Procedure: [The procedure below names another target; the source lists this target under the same test.] as §1, §2

M3 = M3 (Homo sapiens, UniProt P20309); experiment: In vitro functional assay of muscarinic acetylcholine receptor activity, M3; conditions: antagonist activity; M3 method not separately described
Sequence of M3 (P20309 whole entry): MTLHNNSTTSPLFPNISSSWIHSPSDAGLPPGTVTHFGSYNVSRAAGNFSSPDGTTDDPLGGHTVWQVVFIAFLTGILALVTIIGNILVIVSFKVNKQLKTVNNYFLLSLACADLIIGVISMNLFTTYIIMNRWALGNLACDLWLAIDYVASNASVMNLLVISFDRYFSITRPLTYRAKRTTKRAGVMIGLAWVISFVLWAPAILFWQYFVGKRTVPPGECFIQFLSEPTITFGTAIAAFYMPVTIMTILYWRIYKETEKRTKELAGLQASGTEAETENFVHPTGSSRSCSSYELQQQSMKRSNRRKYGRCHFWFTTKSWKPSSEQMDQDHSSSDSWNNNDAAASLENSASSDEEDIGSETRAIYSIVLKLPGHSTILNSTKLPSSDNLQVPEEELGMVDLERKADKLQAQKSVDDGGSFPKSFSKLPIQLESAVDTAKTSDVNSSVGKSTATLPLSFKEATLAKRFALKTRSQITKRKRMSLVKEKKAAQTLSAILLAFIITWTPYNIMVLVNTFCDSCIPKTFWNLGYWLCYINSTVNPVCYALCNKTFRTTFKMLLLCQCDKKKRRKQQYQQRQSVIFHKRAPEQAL
Procedure: [The procedure below names another target; the source lists this target under the same test.] as §1, §2

| SMILES | IC50 (human M1 receptor) [µM] | IC50 (M2) [µM] | IC50 (M3) [µM] |
| --- | --- | --- | --- |
| O=C1[C@@H](CCCc2cccc3ncnn23)C[C@H]2CN(c3cccc(C(F)(F)F)n3)CCN12 [Example 31, (7S,8aS)-7-(3-([1,2,4]triazolo[1,5-a]pyridin-5-yl)propyl)-2-(6-(trifluoromethyl)pyridin-2-yl)hexahydropyrrolo[1,2-a]pyrazin-6(2H)-one] | 1 to 10 | > 10 | > 10 |
| O=C1[C@@H](CCCc2cccn3ncnc23)C[C@H]2CN(c3ccc(F)cn3)CCN12 [Example 62, (7S,8aS)-2-(5-fluoropyridin-2-yl)-7-(3-{[1,2,4]triazolo[1,5-a]pyridin-8-yl}propyl)-octahydropyrrolo[1,2-a]pyrazin-6-one] | < 0.1 | 1 to 10 | 1 to 10 |
| O=C1[C@@H](CCCc2cccc3ncsc23)C[C@H]2CN(c3cccnc3)CCN12 [Example 26, (7S,8aS)-7-(3-(benzo[d]thiazol-7-yl)propyl)-2-(pyridin-3-yl)hexahydropyrrolo[1,2-a]pyrazin-6(2H)-one] | 0.1 to 1 | > 10 | 1 to 10 |
| COc1ccc(N2CCN3C(=O)C(CCCc4cccn5ncnc45)C[C@H]3C2)nc1 (mixture of isomers) [Example 72, (7S,8aS)-7-(3-([1,2,4]triazolo[1,5-a]pyridin-8-yl)propyl)-2-(5-methoxypyridin-2-yl)hexahydropyrrolo[1,2-a]pyrazin-6(2H)-one] | < 0.1 | 1 to 10 | 1 to 10 |
| O=C1[C@H](CCCc2cccc3ncsc23)C[C@H]2CN(c3ccncc3F)CCN12 [Example 1, (7R,8aS)-7-(3-(benzo[d]thiazol-7-yl)propyl)-2-(3-fluoropyridin-4-yl)hexahydropyrrolo[1,2-a]pyrazin-6(2H)-one] | > 10 | > 10 | > 10 |
| N#Cc1ccc(N2CCN3C(=O)[C@@H](CCCc4cccn5ncnc45)C[C@H]3C2)nc1 [Example 68, 6-((7S,8aS)-7-(3-([1,2,4]triazolo[1,5-a]pyridin-8-yl)propyl)-6-oxohexahydropyrrolo[1,2-a]pyrazin-2(1H)-yl)nicotinonitrile] | < 0.1 | 0.1 to 1 | < 0.1 |
| O=C1[C@@H](CCCc2cccn3ncnc23)C[C@H]2CN(c3ncccn3)CCN12 [Example 66, (7S,8aS)-7-(3-([1,2,4]triazolo[1,5-a]pyridin-8-yl)propyl)-2-(pyrimidin-2-yl)hexahydropyrrolo[1,2-a]pyrazin-6(2H)-one] | 0.1 to 1 | > 10 | > 10 |
| O=C1[C@@H](CCCc2cccn3ncnc23)C[C@H]2CN(c3ncc(Cl)cn3)CCN12 [Example 64, (7S,8aS)-7-(3-([1,2,4]triazolo[1,5-a]pyridin-8-yl)propyl)-2-(5-chloropyrimidin-2-yl)hexahydropyrrolo[1,2-a]pyrazin-6(2H)-one] | < 0.1 | 0.1 to 1 | 1 to 10 |
| O=C1[C@@H](CCCc2cccc3nccn23)C[C@H]2CN(c3ccncc3F)CCN12 [Example 3, (7S,8aS)-2-(3-fluoropyridin-4-yl)-7-(3-(imidazo[1,2-a]pyridin-5-yl)propyl)hexahydropyrrolo[1,2-a]pyrazin-6(2H)-one] | 0.1 to 1 | > 10 | 1 to 10 |
| Cc1nccnc1CCC[C@H]1C[C@H]2CN(c3ccc(C#N)cn3)CCN2C1=O [Example 57, 6-((7S,8aS)-7-(3-(3-methylpyrazin-2-yl)propyl)-6-oxohexahydropyrrolo[1,2-a]pyrazin-2(1H)-yl)nicotinonitrile] | 1 to 10 | 1 to 10 | > 10 |
| O=C1[C@@H](CCCc2cccc3ncsc23)C[C@H]2CN(c3ccccn3)CCN12 [Example 27, (7S,8aS)-7-(3-(benzo[d]thiazol-7-yl)propyl)-2-(pyridin-2-yl)hexahydropyrrolo[1,2-a]pyrazin-6(2H)-one] | 0.1 to 1 | > 10 | 1 to 10 |
| N#Cc1ccc(N2CCN3C(=O)[C@@H](CCCc4cccc5nnnn45)C[C@H]3C2)nc1 [Example 17, 6-((7S,8aS)-6-oxo-7-(3-(tetrazolo[1,5-a]pyridin-5-yl)propyl)hexahydropyrrolo[1,2-a]pyrazin-2(1H)-yl)nicotinonitrile] | < 0.1 | 1 to 10 | 1 to 10 |
| N#Cc1ccc(N2CCN3C(=O)[C@@H](CCCc4cccc5nccnc45)C[C@H]3C2)nc1 [Example 60, 6-((7S,8aS)-6-oxo-7-(3-(quinoxalin-5-yl)propyl)hexahydropyrrolo[1,2-a]pyrazin-2(1H)-yl)nicotinonitrile] | < 0.1 | < 0.1 | 0.1 to 1 |

Now from value to compound:

| IC50 (human M1 receptor) [µM] | IC50 (M2) [µM] | IC50 (M3) [µM] | SMILES |
| --- | --- | --- | --- |
| 0.1 to 1 | 1 to 10 | 1 to 10 | O=C1[C@@H](CCCc2cccc3ncnn23)C[C@H]2CN(c3ccnc(C(F)(F)F)c3)CCN12 [Example 33, (7S,8aS)-7-(3-([1,2,4]triazolo[1,5-a]pyridin-5-yl)propyl)-2-(2-(trifluoromethyl)pyridin-4-yl)hexahydropyrrolo[1,2-a]pyrazin-6(2H)-one] |
| 0.1 to 1 | > 10 | > 10 | O=C1C(CCCc2cccc3ncnn23)C[C@H]2CN(c3ccc(F)cn3)CCN12 (single isomer, unassigned) [Example 50] |
| < 0.1 | > 10 | > 10 | O=C1[C@@H](CCCc2cccc3ncnn23)C[C@H]2CN(c3ncc(F)cn3)CCN12 [Example 35, (7S,8aS)-7-(3-([1,2,4]triazolo[1,5-a]pyridin-5-yl)propyl)-2-(5-fluoropyrimidin-2-yl)hexahydropyrrolo[1,2-a]pyrazin-6(2H)-one] |
| 1 to 10 | 1 to 10 | 1 to 10 | Cc1ncc(N2CCN3C(=O)C(CCCc4cccc5ncnn45)C[C@H]3C2)cc1F (mixture of isomers) [Example 43, (7S,8aS)-7-(3-([1,2,4]triazolo[1,5-a]pyridin-5-yl)propyl)-2-(5-fluoro-6-methylpyridin-3-yl)hexahydropyrrolo[1,2-a]pyrazin-6(2H)-one] |
| 0.1 to 1 | 0.1 to 1 | 1 to 10 | N#Cc1cc(N2CCN3C(=O)[C@@H](CCCc4cccc5ncnn45)C[C@H]3C2)ccc1F [Example 52, 5-((7S,8aS)-7-(3-([1,2,4]triazolo[1,5-a]pyridin-5-yl)propyl)-6-oxohexahydropyrrolo [1,2-a]pyrazin-2(1H)-yl)-2-fluorobenzonitrile] |
| < 0.1 | 1 to 10 | 1 to 10 | COCc1ccc(N2CCN3C(=O)[C@@H](CCCc4cccc5ncnn45)C[C@H]3C2)nc1 [Example 49, (7S,8aS)-7-(3-([1,2,4]triazolo[1,5-a]pyridin-5-yl)propyl)-2-(5-(methoxymethyl)pyridin-2-yl)hexahydropyrrolo[1,2-a]pyrazin-6(2H)-one] |
| < 0.1 | < 0.1 | 0.1 to 1 | O=C1[C@@H](CCCc2cccc3ncnn23)C[C@H]2CN(c3ccc(C4CC4)cn3)CCN12 [Example 45, (8aS)-7-(3-([1,2,4]triazolo[1,5-a]pyridin-5-yl)propyl)-2-(5-cyclopropylpyridin-2-yl)hexahydropyrrolo[1,2-a]pyrazin-6(2H)-one] |
| 0.1 to 1 | > 10 | > 10 | O=C1[C@@H](CCCc2cccc3ncnn23)C[C@H]2CN(c3ccc(F)cc3)CCN12 [Example 47, (7S,8aS)-7-(3-([1,2,4]triazolo[1,5-a]pyridin-5-yl)propyl)-2-(4-fluorophenyl)hexahydropyrrolo[1,2-a]pyrazin-6(2H)-one] |
